{"source": "patent US20080220416A1", "about": "“Compositions for Inhibiting Cell Growth and Inducing Apoptosis in Cancer Cells and Methods of Use Thereof” (THE BOARD OF TRUSTEES OF THE UNIVERSITY OF ILLINOI, priority 2004, published 2008)", "key": {"[1]": {"tested_on": "MDA-MB231 breast cancer cells", "assay": "Cytotoxicity and growth assay in MDA-MB231 breast cancer cells (SRB, TCA-precipitated protein)", "type": "cell-based, human", "experimental": "An invasive, estrogen-independent breast cancer cell line that spontaneously expresses high levels of Notch-1 and -4, MDA-MB231, and normal human breast cells were used to investigate whether inhibition of Notch activation or expression affects the biological behavior of breast cancer cells. Human Mammary Epithelial Cells (HMEC) were purchased from Clonetics and cultured in mammary epithelial cell basal medium (MEBM) supplemented with 52 μg/ml Bovine Pituitary Extract […], […] human recombinant Epidermal Growth Factor (hEGF), 5 μg/ml insulin, 0.5 μg/ml Hydrocortisone, 50 μg/ml Gentamicin and 50 μg/ml Amphotericin-B. MDA-MB231 (ATCC, Rockville, Md.) were cultured in DMEM medium with 10% FBS. Notch expression in HMEC and MDA-MB231 cells was silenced using highly specific RNAi. Double-stranded synthetic 21-mer RNA oligonucleotides (siRNAs) were purchased from Dharmacon (Lafayette, Colo.). […] Sequence specificity was determined by BLAST searches which determined the uniqueness of the sequences. Transfection of siRNAs was performed using Oligofectamine (Invitrogen) as recommended by the siRNA manufacturer (Dharmacon). Transfection efficiency was optimized and followed on parallel wells using DNA double stranded oligos of identical sequence to the siRNAs, labeled with biotin on one strand. Transfected cells were identified by Streptavidin-horseradish peroxidase staining (Vectastain) and counted. Transfection efficiencies around 80% were routinely obtained.\nCytotoxicity and growth of transfected cells were estimated by a standard assay used for cancer drug screening, through the total amount of TCA-precipitated cell proteins after drug treatment (Likhitwitayawuid, K et al., 1993, J Nat Prod 56:30-38): 200 μl of cell suspension (10^5 cells/ml) were added to each well in a 96-well plate. After incubation at, 37° C., in 5% CO2 (30 minutes to 72 hours depending on the time course chosen), 50 μl 50% trichloroacetic acid was added to each well. After incubation at 4° C. for 1 hour, precipitates were washed with water 4-5 times and air dried overnight. One hundred μl of SRB solution (0.4% sulforhodamine B in 1% acetic acid, filtered before use) was added to each well for 30 minutes. Wells were washed with 1% acetic acid 4-5 times and air dried. Two hundred μl 10 mM Tris base was added to each well. Plates were shaken for 5-10 minutes and OD at 490 nm (OD490) was recorded via ELISA reader. To assay matrix invasion, 300 μl of cell suspension (10^6 cells/mL in serum-free medium) were added to invasion inserts (BioCoat Matrigel Invasion Chambers, Becton Dickinson, Bedford, Mass.) and incubated for 22 hours at 37° C., 5% CO2. […] After removal of the non-invading cells from the interior of the inserts, stained invading cells were lysed in 10% acetic acid and OD595 was determined. […]"}, "[2]": {"tested_on": "cyclins A and B1", "assay": "Cyclin expression in MDA-MB231 cells (ribonuclease protection assay, Western blot)", "type": "cell-based, human", "experimental": "To explore the effects on Notch-1 siRNA on the expression of cyclins, the main regulators of cell cycle progression, ribonuclease protection assays and Western blots on Notch-1 siRNA-treated cells were performed. Transfection of the MBA-MD231 cells with Notch-1 siRNA (5′-AAGTGTCTGAGGCCAGCAAGA-3′) (SEQ ID NO. 1) or control siRNA (5′-AACAGTCGCGTTTGCGACTGG-3′) (SEQ ID NO: 5), was performed as described above. Ribonuclease protection assays were performed by first preparing total RNA using a RNeasy Mini kit (QIAGEN Cat. #74104) according to the manufacturer's instructions. The multi-probe template set hCYC-1 (containing DNA templates for cyclin A, cyclin B, cyclin C, cyclin D1, cyclin D2, cyclin D3, cyclin A1 L32 and GAPDH) was purchased from BD Biosciences (Cat. # 556189). The DNA template was used to synthesize a [^32P]UTP (10 mCi/ml, Amersham Bioscience) labelled probe in the presence of a GACU pool using a […] RNA-polymerase (BD Bioscience RiboQuant RPA starter package, Cat. # 556144). Hybridization with 20 μg of each target RNA was performed at 56° C. overnight, followed by digestion with RNAse A and T1 according to the BD Bioscience standard protocol. After proteinase K treatment, samples were precipitated, loaded on a 4.75% acrylamide-urea gel, and run at 55 W with 0.5×TBE. Gels were dried in the gel dryer under vacuum for 2 h at 90° C. Then gels were exposed on Kodak film (Eastman Kodak, Rochester, N.Y.) with intensifying screens and developed at −70° C. Western blots were performed as described above. […] Western blot data confirmed these findings. […] CDK1 levels were only modestly affected. Cyclin A/cdk2 phosphorylates E2F-1/DP complexes at the end of S-phase, inactivating them. This prevents a re-initiation of DNA replication and assures that the genome is replicated only once at each S phase. Failure of cyclin A/cdk2 to inactivate E2F results in inappropriately persistent E2F activity, which may lead to apoptosis. E2F-1 is known to upregulate its own transcription. […]"}}, "note": "Square brackets hold non-standard residues; d marks the D form. Peptide text beside a SMILES is read from it. * marks the point of attachment. Nle = CCCC[C@H](N)C(=O)O; Cbz = O=C(OCc1ccccc1)*"}
{"compound": "CCCC[C@@H](C=O)NC(=O)[C@H](CC(C)C)NC(=O)[C@H](CC(C)C)NC(=O)OCc1ccccc1", "note": "[z-Leu-Leu-Nle-CHO, N-benzyloxycarbonyl-leucyl-leucyl-norleucinal] (Cbz-Leu-Leu-[Nle]-aldehyde)", "values": [{"measurement": "IC50", "setting": "[1]; Homo sapiens, MDA-MB-231, MDA-MB231 (p53-mutant, ERα-negative), 48 h, read-out: IC50, cell growth inhibition", "value": 1300, "unit": "nM"}, {"measurement": "cyclin A and cyclin B protein (Western blot)", "setting": "[2]; 0.5 or 1 μM, 24 h", "value": "dramatically reduced the levels of cyclin A protein at 0.5 μM, whereas cyclin B was decreased at 1 μM"}]}
{"compound": "5′-AAGTGTCTGAGGCCAGCAAGA-3′ [Notch-1 siRNA]", "values": [{"measurement": "proliferation", "setting": "[1]; MDA-MB231, siRNA transfection", "value": "inhibits proliferation of MDA-MB231 breast cancer cells"}, {"measurement": "cyclin B1 protein (Western blot)", "setting": "[2]", "value": "striking decrease in the steady state levels of cyclin B1 at 48 hours"}, {"measurement": "cyclin mRNA expression (ribonuclease protection assay)", "setting": "[2]", "value": "decreases the expression of mRNAs for cyclins B1 and A, but not C, D, or A1"}]}
